pIC50: −log10 of the molar value.

The assay deals with T1, human CXCR3 (N-delta 4) (Homo sapiens, UniProt P49682).
T1 construct: CD8 leader (N); Flag tag; expressed in transfected cells; membrane preparation
T1 sequence (P49682 5-368 limits assumed): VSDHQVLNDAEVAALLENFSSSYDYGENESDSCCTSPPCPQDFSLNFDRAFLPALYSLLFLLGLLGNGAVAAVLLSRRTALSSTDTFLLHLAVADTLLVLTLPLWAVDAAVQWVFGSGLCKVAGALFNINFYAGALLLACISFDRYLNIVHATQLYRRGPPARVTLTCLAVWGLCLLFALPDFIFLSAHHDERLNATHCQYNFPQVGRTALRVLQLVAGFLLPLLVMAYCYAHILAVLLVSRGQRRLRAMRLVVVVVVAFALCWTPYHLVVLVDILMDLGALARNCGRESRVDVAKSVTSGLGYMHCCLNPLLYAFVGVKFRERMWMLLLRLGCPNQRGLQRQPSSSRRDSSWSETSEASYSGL
The assay is described as follows: Human CXCR3 (N-delta 4) scintillation proximity assay (SPA), [125I] IP-10 binding to Ba/F3-hCXCR3 membranes. The conditions noted are these: IC50 rating; [125I] IP-10 displacement, human CXCR3; read-out: IC50. The gist of the method:
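Membranes from Ba/F3 cells expressing Flag-tagged hCXCR3 (N-delta 4), 2 μg/point, precoupled to WGA SPA beads. Binding of 25 pM [125I] IP-10 measured with titrated compounds, 3 hr at room temperature, in HEPES buffer with CaCl2, MgCl2, NaCl and 1.0% BSA; bound tracer read by scintillation counting.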
For the compound `C[C@@H]1CN(c2ncc(Nc3c(NCC(F)(F)F)c(=O)c3=O)cc2Cl)[C@@H](C)CN1C1CCN(Cc2ccc(C#Cc3ccccc3)cc2)CC1` [Compound 126], the negative-log IC50 (pIC50) (as a rule, −log10 of the IC50, conventionally taken in molar units) is under 7.00. Turning to `CC(=O)Nc1ccc(CN2CCC(N3C[C@H](C)N(c4ncc(Nc5c(NCC(F)(F)F)c(=O)c5=O)cc4Cl)C[C@H]3C)CC2)cc1` [Compound 147], the pIC50 is under 7.00. In the case of `Cc1cc(Nc2c(NCC(F)(F)F)c(=O)c2=O)cnc1N1C[C@@H](C)N(C2CCN(C(=O)c3ccc(Cl)cc3)CC2)C[C@@H]1C` [Compound 141], the pIC50 is under 7.00. For the compound `CC[C@H]1CN(c2ncc(NS(C)(=O)=O)cc2Cl)CCN1C1CCN(C(C(=O)OC)c2ccc(Cl)cc2)CC1` (stereo partly drawn) [Compound 27], the negative logarithm of the IC50 (pIC50) was 7.00 to 7.60. Turning to `C[C@H]1CN(c2ncc(NC(=O)NCc3ccccc3)cc2Cl)CCN1C1CCN(Cc2ccc(Cl)cc2)CC1` [Compound 198], the pIC50 is under 7.00. In the case of `CC[C@H]1CN(c2ncc(NC(=N)N)cc2Cl)CCN1C1CCN(Cc2ccc(Cl)cc2F)CC1` [Compound 221], the negative-log IC50 (pIC50) was under 7.00. `Cc1cc(Nc2c(NCC(F)(F)F)c(=O)c2=O)cnc1N1C[C@@H](C)N(C2CCN(C(=O)c3ccc(C(F)(F)F)cc3)CC2)C[C@@H]1C` [Compound 164]: the pIC50 is under 7.00. Regarding `CC[C@H]1CN(c2ncc(NS(C)(=O)=O)cc2Cl)CCN1C1CCN(C(C(N)=O)c2ccc(Cl)cc2)CC1` (stereo partly drawn) [Compound 12], the pIC50 is over 7.60. With `C[C@H]1CN(c2ncc(NC(=O)C3CC3)cc2Cl)CCN1C1CCN(Cc2ccc(Cl)cc2)CC1` [Compound 184], the negative-log IC50 (pIC50) is over 7.60. As for `CC[C@H]1CN(c2ncc(NS(C)(=O)=O)cc2Cl)CCN1C1CCN(Cc2ccc(Br)cc2)CC1` [Compound 5], the figure is over 7.60; as for `CC[C@H]1CN(c2ncc([N+](=O)[O-])cc2Cl)CCN1C1CCN(Cc2ccc(Cl)cc2-c2nnc(Br)[nH]2)CC1` [Compound 230], under 7.00.

Turning to `CC[C@H]1CN(c2ncc(Nc3c(NC4CCC4)c(=O)c3=O)cc2Cl)CCN1C1CCN(C(=O)c2ccc(Cl)cc2)CC1` [Compound 107], the pIC50 is 7.00 to 7.60. For `CCNC(=O)Nc1cnc(N2CCN(C3CCN(Cc4ccc(Cl)cc4F)CC3)[C@@H](CC)C2)c(Cl)c1` [Compound 183], the pIC50 is over 7.60. With `CC[C@H]1CN(c2ncc(N(Cc3ccc(C#N)cc3)c3c(C(C)C)c(=O)c3=O)cc2Cl)CCN1C1CCN(Cc2ccc(C#N)cc2)CC1` [Compound 148], the negative-log IC50 (pIC50) is under 7.00.

As to `C[C@@H]1CN(c2ncc(Nc3c(NCC(F)(F)F)c(=O)c3=O)cc2Cl)[C@@H](C)CN1C1CCN(Cc2ccc(-c3ccccc3)cc2)CC1` [Compound 135], the pIC50 was under 7.00.

In the case of `CC(C)CCN1CCC(N2C[C@H](C)N(c3ncc(Nc4c(NCC(F)(F)F)c(=O)c4=O)cc3Cl)C[C@H]2C)CC1` [Compound 113], the pIC50 is under 7.00.

As to `C[C@@H]1CN(C2CCN(Cc3ccc(Cl)cc3)CC2)[C@@H](C)CN1c1ncc(NC(=O)NCC(F)(F)F)cc1Cl` [Compound 197], the pIC50 is under 7.00. The result for `CC[C@H]1CN(c2ncc(N)cc2Cl)CCN1C1CCN(Cc2ccc(Br)cc2F)CC1` [Compound 203] reads over 7.60; that for `CC[C@H]1CN(c2ncc(NS(=O)(=O)c3ccc(Cl)cc3)cc2Cl)CCN1C1CCN(Cc2ccc(Cl)cc2F)CC1` [Compound 46], under 7.00; that for `CC[C@H]1CN(c2ncc(NC3=NS(=O)(=O)N=C3NC3CC3)cc2Cl)CCN1C1CCN(Cc2ccc(Cl)c(F)c2)CC1` [Compound 242], over 7.60. Turning to `CC[C@H]1CN(c2ncc(N/C(=N/C#N)NCCO)cc2Cl)CCN1C1CCN(Cc2ccc(Cl)cc2F)CC1` [Compound 214], the negative-log IC50 (pIC50) was under 7.00. As for `CC[C@H]1CN(c2ncc(Nc3c(NC4CCC4)c(=O)c3=O)cc2Cl)CCN1C1CCN(Cc2ccc(Cl)cc2)CC1` [Compound 78], the figure is over 7.60. The result for `CC[C@H]1CN(c2ncc(NC3=NS(=O)(=O)N=C3NC[C@H](C)O)cc2Cl)CCN1C1CCN(Cc2ccc(Cl)cc2F)CC1` [Compound 253] reads over 7.60; that for `CC[C@H]1CN(c2ncc(NC3=NS(=O)(=O)N=C3NCCO)cc2Cl)CCN1C1CCN(Cc2ccc(F)c(F)c2)CC1` [Compound 257], 7.00 to 7.60. For `C[C@@H]1CN(c2ncc(Nc3c(NCC(F)(F)F)c(=O)c3=O)cc2Cl)[C@@H](C)CN1C1CCN(Cc2cccc(Br)c2)CC1` [Compound 136], the negative logarithm of the IC50 (pIC50) was under 7.00. With `CC[C@H]1CN(c2ncc(NS(C)(=O)=O)cc2Cl)CCN1C1CCN(Cc2cc(C)c(C)s2)CC1` [Compound 43], the negative logarithm of the IC50 (pIC50) was under 7.00. `CCNC(=O)Nc1cnc(N2CCN(C3CCN(Cc4ccc(Cl)cc4)CC3)[C@@H](C)C2)c(Cl)c1` [Compound 190]: the pIC50 was 7.00 to 7.60. As for `CC[C@H]1CN(c2ncc(NS(N)(=O)=O)cc2Cl)CCN1C1CCN([C@H](C(N)=O)c2ccc(Cl)cc2)CC1` [Compound 35], the negative-log IC50 (pIC50) is 7.00 to 7.60.

Regarding `CCNC(=O)Nc1cnc(N2C[C@H](C)N(C3CCN(Cc4ccc(Cl)cc4F)CC3)C[C@H]2C)c(Cl)c1` [Compound 191], the pIC50 was under 7.00.

Turning to `CC[C@H]1CN(c2ncc(-n3ccnc3)cc2Cl)CCN1C1CCN([C@H](C(=O)OC)c2ccc(Cl)cc2)CC1` [Compound 229], the pIC50 was under 7.00.

For the compound `CC[C@H]1CN(c2ncc(Nc3c(NC4CCC4)c(=O)c3=O)cc2Cl)CCN1C1CCN(Cc2ccc(OC(F)(F)F)cc2)CC1` [Compound 83], the pIC50 was over 7.60. For the compound `C[C@@H]1CN(c2ncc(Nc3c(NCC(F)(F)F)c(=O)c3=O)cc2Cl)[C@@H](C)CN1C1CCN(Cc2ccco2)CC1` [Compound 142], the pIC50 is under 7.00. As for `CC[C@H]1CN(c2ncc(NC3=NS(=O)(=O)N=C3NC(C)C)cc2Cl)CCN1C1CCN(Cc2ccc(Cl)cc2F)CC1` [Compound 243], the figure is over 7.60; as for `CC[C@H]1CN(c2ncc(Nc3c(NC4CC4)c(=O)c3=O)cc2Cl)CCN1C1CCN(Cc2ccc(C#N)cc2)CC1` [Compound 80], over 7.60.

For the compound `COC(=O)c1ccc(CN2CCC(N3C[C@H](C)N(c4ncc(Nc5c(NCC(F)(F)F)c(=O)c5=O)cc4Cl)C[C@H]3C)CC2)cc1` [Compound 123], the pIC50 was under 7.00. As to `CC[C@H]1CN(c2ncc(NS(C)(=O)=O)cc2Cl)CCN1C1CCN([C@@H](C(=O)NC)c2ccc(Cl)cc2)CC1` [Compound 54], the pIC50 was under 7.00. In the case of `CC[C@H]1CN(c2ncc(NS(N)(=O)=O)cc2Cl)CCN1C1CCN(Cc2ccc(Cl)cc2F)CC1` [Compound 2], the pIC50 was over 7.60. On to `C[C@@H]1CN(c2ncc(Nc3c(NCC(F)(F)F)c(=O)c3=O)cc2Cl)[C@@H](C)CN1C1CCN(Cc2ccccc2OCC(=O)O)CC1` [Compound 137], for which the pIC50 is under 7.00.

On to `CC[C@H]1CN(c2ncc(NC3=NS(=O)(=O)N=C3NC3CC3)cc2Cl)CCN1C1CCN(Cc2ccc(C#N)cc2)CC1` [Compound 248], for which the pIC50 was over 7.60. Turning to `CC[C@H]1CN(c2ncc(Nc3c(NCC(N)=O)c(=O)c3=O)cc2Cl)CCN1C1CCN([C@H](CO)c2ccc(Cl)cc2)CC1` [Compound 103], the negative-log IC50 (pIC50) was 7.00 to 7.60. As to `CC[C@H]1CN(c2ncc(N(C)c3c(NC4CC4)c(=O)c3=O)cc2Cl)CCN1C1CCN(C(CO)c2ccc(Cl)cc2)CC1` (stereo partly drawn) [Compound 108], the pIC50 is 7.00 to 7.60. For `C[C@@H]1CN(c2ncc(Nc3c(NCC(F)(F)F)c(=O)c3=O)cc2Cl)[C@@H](C)CN1C1CCN(C/C=C/c2ccccc2)CC1` [Compound 115], the pIC50 was under 7.00.

Turning to `CC[C@H]1CN(c2ncc(NS(=O)(=O)CC)cc2Cl)CCN1C1CCN(C(N)c2ccc(Cl)cc2F)CC1` (stereo partly drawn) [Compound 15], the negative logarithm of the IC50 (pIC50) is over 7.60.

Consider `CC[C@H]1CN(c2ncc(NS(C)(=O)=O)cc2Cl)CCN1C1CCN(Cc2ccc(Cl)cc2C(=O)OC)CC1` [Compound 30], for which the negative-log IC50 (pIC50) is 7.00 to 7.60.

With `CC[C@H]1CN(c2ncc(Nc3c(N(C)C)c(=O)c3=O)cc2Cl)CCN1C1CCN(C(CO)c2ccc(Cl)cc2)CC1` (stereo partly drawn) [Compound 94], the pIC50 is over 7.60.

Turning to `CC[C@H]1CN(c2ncc(NC3=NS(=O)(=O)N=C3NC3CCC3)cc2Cl)CCN1C1CCN(Cc2ccc(Cl)cc2F)CC1` [Compound 247], the negative-log IC50 (pIC50) was over 7.60.

Take `CC[C@H]1CN(c2ncc(NS(C)(=O)=O)cc2Cl)CCN1C1CCN(Cc2ccc(Cl)cc2F)CC1` [Compound 7]: the negative logarithm of the IC50 (pIC50) was over 7.60. As to `CC[C@H]1CN(c2ncc(NC3=NS(=O)(=O)N=C3NC3CC3)cc2Cl)CCN1C1CCN(Cc2ccc(Cl)cc2-c2nnc[nH]2)CC1` [Compound 250], the pIC50 is over 7.60.

For the compound `Cc1cc(Nc2c(NCC(F)(F)F)c(=O)c2=O)cnc1N1C[C@@H](C)N(C2CCN(C(=O)C3CCc4ccccc4C3)CC2)C[C@@H]1C` (stereo partly drawn) [Compound 130], the pIC50 was under 7.00. Regarding `C[C@H]1CN(c2ncc(NS(C)(=O)=O)cc2Cl)CCN1C1CCN(C(=O)c2ccc(Cl)cc2)CC1` [Compound 66], the negative logarithm of the IC50 (pIC50) is under 7.00. On to `C[C@@H]1CN(C2CCN(Cc3ccc(Cl)cc3F)CC2)[C@@H](C)CN1c1ncc(Nc2c(NCC(F)(F)F)c(=O)c2=O)cc1Cl` [Compound 92], for which the pIC50 is over 7.60. Take `CCCCNC1=NS(=O)(=O)N=C1Nc1cnc(N2CCN(C3CCN(Cc4ccc(Cl)cc4C#N)CC3)[C@@H](CC)C2)c(Cl)c1` [Compound 273]: the pIC50 is under 7.00.

Regarding `COc1ccccc1CN1CCC(N2C[C@H](C)N(c3ncc(Nc4c(NCC(F)(F)F)c(=O)c4=O)cc3Cl)C[C@H]2C)CC1` [Compound 154], the pIC50 was under 7.00.

With `CC[C@H]1CN(c2ncc(Nc3c(NCCN(C)C)c(=O)c3=O)cc2Cl)CCN1C1CCN([C@H](CO)c2ccc(Cl)cc2)CC1` [Compound 95], the pIC50 is over 7.60.

For the origin of these results see patent US7566718B2, “Amine-linked pyridyl and phenyl substituted piperazine-piperidines with CXCR3 antagonist activity” (Schering Corporation, priority 2005, dated 2009).
